Where two headings read alike, the source gives them in different places.
How the values were obtained:
[1] = system: SW480 human colon adenocarcinoma cells; test: Cell viability, sulforhodamine B (SRB) assay, SW480 cells; assay type: cell-based; settings: for IC50: Homo sapiens, SW480 cells, SRB; for SI (selectivity index), 24 h: ratio of IC50 against CHO-K1 to IC50 against SW480, 24 h; for SI (selectivity index), 48 h: ratio of IC50 against CHO-K1 to IC50 against SW480, 48 h
Protocol: (§1) Biological assays were performed using an adenocarcinoma colon cancer cell line (SW480) and non-malignant cells (CHO-K1). These were obtained from the European Collection of Authenticated Cell Cultures (ECACC, England) and maintained in Dulbecco’s Modified Eagle Medium, supplemented with 10% heat-inactivated (56 °C) horse serum, 1% penicillin/streptomycin and 1% non-essential amino acids (Gibco Invitrogen, Carlsbad, USA). For all experiments, horse serum was reduced to 3%, and the medium was supplemented with […] transferrin, 5 ng/mL selenium and […] insulin (ITS-defined medium; Gibco, Invitrogen, Carlsbad, USA) ([32]).
(§2) The cell viability of the synthesized hybrids, lead, and reference compounds was evaluated through Sulforhodamine B (SRB) assay, a colorimetric test that is based on staining of total cellular protein of adherent cells. The cells were seeded to a ﬁnal density of 20.000 cells/well in 96-well tissue culture plates and incubated at 37 °C in a humidified atmosphere at 5% CO2. […] After treatment, the cells were fixed with trichloroacetic acid (50% v/v) (MERCK) for a period of one h at 4 °C. The cell proteins were determined by staining with 0.4% (w/v) SRB (Sigma-Aldrich, United States), then they were washed with 1% acetic acid for the removal of unbound SRB and left for air-drying. Protein bound SRB was solubilized in 10 mM Tris-base and the absorbance was measured at 492 nm in a microplate reader (Mindray MR-96A) ([33]). All of the experiments were performed at least in quintuplicate.

[2] = system: non-malignant CHO-K1 cell line; test: Cell viability, sulforhodamine B (SRB) assay, CHO-K1 cells; assay type: cell-based; settings: Cricetulus griseus
Protocol: as §1, §2

SW480 cells [3] = test: Mitochondrial membrane potential (ΔΨm), DiOC6/PI flow cytometry; assay type: cell-based, human; settings: SW480, treated at IC50, 48 h; for Mitochondrial membrane depolarization in words: vs control; for PI+ cells: cells in process of death; for DiOC6 low cells: cells that lose membrane polarization; for DiOC6 high cells: live cells with high membrane polarization
Protocol: Mitochondrial membrane permeability changes were assessed through the fluorescent dye DiOC6 (3,3’-dihexyloxacarbocyanine iodide, Thermo Fisher Scientiﬁc, Waltham, MA, USA), and propidium iodide (PI). The cells were seeded to a ﬁnal density of 2.5 x 10^5 cells/well in 6-well tissue culture plates and were allowed to grow for 24 h. […] The cells were collected to analyze 10,000 events by ﬂow cytometry with excitation at 488 nm and detection of the emission with the green (530/15 nm) and the red (610/20 nm) ﬁlters. This method allowed us quantifying cells with depolarized mitochondrial membrane ([34]).

SW480 cells [4] = test: Cell cycle analysis, propidium iodide flow cytometry; assay type: cell-based, human; settings: SW480, treated at IC50, 48 h
Protocol: Cell cycle distribution was analyzed by labelling cells with propidium iodide (PI). Assays were carried out as described by Nicoletti et al. (1991). In brief, cells were seeded in 6-well tissue culture plates at a density of 2.5 x 10^5 cells/well, incubated at 37 °C in a 5% CO2 atmosphere. […] After the treatment, the cells were collected by scraping and the centrifuged cell pellet was resuspended with phosphate buffered saline (PBS). The cell suspension was fixed in 1.8 mL 70% ethanol at 4°C overnight, afterward, these were centrifuged, washed twice in PBS and resuspended in 300 µL of PBS containing 0.25 mg/mL RNAse (Type I-A, Sigma-Aldrich, Germany) and 0.1 mg/mL PI. Following the incubation in the dark at room temperature for 30 min, the PI ﬂuorescence of 10,000 cells was analyzed using a FACS Canto II ﬂow cytometer and the software BD FACS Diva 6.1.3. (BD Biosciences, San Jose). PI signal was analyzed with excitation at 488 nm, using a Sapphire laser, and fluorescence was detected at 610nm. The cell clumps were excluded with the PI-Area vs PI-Width signals. The cell cycle model was ﬁxed using the software FlowJo 7.6.2 (Ashland, OR, USA), applying the Dean-Jett-Fox model ([34], [35]).

SW480 cells [5] = test: Antiproliferative activity, SRB assay over 0-8 days; assay type: cell-based, human; settings: 0.1-0.55 mM, p ≤ 0.05 vs control
Protocol: Briefly, the cells were seeded to a ﬁnal density of 2500 cells/well in 96-well tissue culture plates and incubated in the same conditions described for viability. […] Culture media was replaced every 48 h. After each incubation time, the cells were fixed, stained, and read as previously described for this technique ([32]).

[6] = 24 h treatment, read-out: IC50 (mM) SW480 cells, 24 h
[7] = 48 h treatment, read-out: IC50 (mM) SW480 cells, 48 h
[8] = 24 h treatment, read-out: IC50 (mM) CHO-K1 cells, 24 h
[9] = 48 h treatment, read-out: IC50 (mM) CHO-K1 cells, 48 h

SMILES | IC50 [1, 6] [mM] | IC50 [1, 7] [mM] | SI (selectivity index), 24 h [1] | IC50 [2, 8] [mM] | IC50 [2, 9] [mM] | melting point [°C] | SI (selectivity index), 48 h [1] | Cytotoxic activity in words ([1]; at 24 h and 48 h after treatment) | Mitochondrial membrane depolarization in words (SW480 cells [3]) | PI+ cells (SW480 cells [3]) | DiOC6 low cells (SW480 cells [3]) | DiOC6 high cells (SW480 cells [3]) | Cells in G2/M phase (SW480 cells [4]) [%] | Effect on cell cycle in words (SW480 cells [4]) | Cells in G0/G1 phase (SW480 cells [4]) [%] | Cells in S phase (SW480 cells [4]) [%] | Day from which significant antiproliferative activity was displayed (SW480 cells [5]) [days]
C=CCSC[C@H](N)C(=O)OC [3a, S-Allylcysteine methyl ester] | > 10 | > 10 | <0.19 | 1.85 | > 10 | 114 to 116 | – | – | – | – | – | – | – | – | – | – | –
C=CCSC[C@H](N)C(=O)OCCC [3c, Propyl S-prop-2-en-1-ylcysteinate] | > 10 | 1.28 | <0.15 | 1.5 | 1.24 | 115 to 117 | 0.97 | – | – | – | – | – | – | – | – | – | –
O=c1[nH]cc(F)c(=O)[nH]1 [5-Fluorouracil, 5-fluorouracil, reference compound] | 0.062 | 0.035 | – | 0.091 | 0.048 | – | 1.34 | – | – | – | – | – | – | – | – | – | –
C=CCSC[C@H](NC(=O)/C=C/c1ccc(OC(C)=O)c(OC(C)=O)c1)C(=O)OC [6a, Methyl N-{(2E)-3-[3,4-bis(acetyloxy)phenyl]prop-2-enoyl}-S-prop-2-en-1-ylcysteinate] | 0.67 | > 10 | – | 2.77 | 7.83 | – | – | – | – | – | – | – | – | – | – | – | –
C=CCSC[C@H](NC(=O)/C=C/c1ccc(OC(C)=O)c(OC(C)=O)c1)C(=O)OCC [6b, Ethyl N-{(2E)-3-[3,4-bis(acetyloxy)phenyl]prop-2-enoyl}-S-prop-2-en-1-ylcysteinate] | > 10 | > 10 | – | 3.84 | > 10 | – | – | did not exhibit activity | – | – | – | – | – | – | – | – | –
C=CCSC[C@H](NC(=O)/C=C/c1ccc(OC(C)=O)c(OC(C)=O)c1)C(=O)OCCC [6c, Propyl N-{(2E)-3-[3,4-bis(acetyloxy)phenyl]prop-2-enoyl}-S-prop-2-en-1-ylcysteinate] | 1.02 | > 10 | 0.26 | 0.27 | 1.25 | 80 to 82 | <0.13 | – | – | – | – | – | – | – | – | – | –
C=CCSC[C@H](NC(=O)/C=C/c1ccc(OC(C)=O)c(OC(C)=O)c1)C(=O)OCCCC [6d, Butyl N-{(2E)-3-[3,4-bis(acetyloxy)phenyl]prop-2-enoyl}-S-prop-2-en-1-ylcysteinate] | 2.79 | > 10 | – | 0.21 | 9.97 | – | – | – | – | – | – | – | – | – | – | – | –
C=CCSC[C@H](NC(=O)/C=C/c1ccc(O)c(O)c1)C(=O)OC [9a, Methyl N-[(2E)-3-(3,4-dihydroxyphenyl)-2-propenoyl]-S-2-propen-1-yl-L-cysteinate] | 0.24 | 0.12 | 2.0 | 0.47 | 0.18 | 101 to 103 | 1.5 | – | highest activity | 8,16% | 62,9% | 29,4% | 18.8 | cell cycle arrest in G2/M phase | – | – | –
C=CCSC[C@H](NC(=O)/C=C/c1ccc(O)c(O)c1)C(=O)OCC [9b, Ethyl N-[(2E)-3-(3,4-dihydroxyphenyl)-2-propenoyl]-S-2-propen-1-yl-L-cysteinate] | 0.93 | 0.12 | – | > 10 | > 10 | – | – | – | – | 21,9% | 36,5% | 42,0% | – | did not have any impact on the cell cycle | – | – | –
C=CCSC[C@H](NC(=O)/C=C/c1ccc(O)c(O)c1)C(=O)OCCC [9c, Propyl N-[(2E)-3-(3,4-dihydroxyphenyl)-2-propenoyl]-S-2-propen-1-yl-L-cysteinate] | 0.1 | 0.11 | – | 0.12 | > 10 | – | – | – | – | 9,13% | 45,0% | 44,5% | – | S- phase | 67.3 | 23 | –
C=CCSC[C@H](NC(=O)/C=C/c1ccc(O)c(O)c1)C(=O)OCCCC [9d, Butyl N-[(2E)-3-(3,4-dihydroxyphenyl)-2-propenoyl]-S-2-propen-1-yl-L-cysteinate] | 0.11 | 0.15 | >90.91 | > 10 | > 10 | 119 to 121 | >66.67 | – | – | – | – | – | – | – | – | – | 4
C=CCSC[C@H](NC(=O)/C=C/c1ccc(O)c(O)c1)C(=O)OCCCCC [9e, Pentyl N-[(2E)-3-(3,4-dihydroxyphenyl)-2-propenoyl]-S-2-propen-1-yl-L-cysteinate] | 0.2 | 0.12 | – | 0.21 | > 10 | – | – | – | highest activity | 8,32% | 59,9% | 32,5% | 22.3 | cell cycle arrest in G2/M phase | – | – | 2
O=C(O)/C=C/c1ccc(O)c(O)c1 [Caffeic acid] | 7.06 | 3.47 | >1.42 | > 10 | > 10 | – | >2.88 | – | – | – | – | – | – | – | – | – | –
C=CCSC[C@H](N)C(=O)O [S-Allylcysteine, reference compound] | > 10 | 0.38 | >1.0 | > 10 | > 10 | – | >26.32 | – | – | – | – | – | – | – | – | – | –

From publication PMC7059070, “Synthesis and in-vitro Evaluation of S-allyl Cysteine Ester - Caffeic Acid Amide Hybrids as Potential Anticancer Agents” (Iranian Journal of Pharmaceutical Research : IJPR, 2019)
